Measurements as given in the supplement of paper PMC4862054.

Key:
Details in all cases: incubation time: 72 h
DU-4475 [1] = assay: drug sensitivity score (DSS), CellTox Green (DSS (AUC-based score)); higher = stronger drug effect (viability inhibition or cytotoxicity); extreme values may be limits of the assay
How it was run: (§1)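 Normalisation on every plate relied on 0.1 % DMSO and a positive kill control. The plates, 384-well format, held compound at 5 concentrations 10-fold apart across a compound-specific 10,000-fold range, and breast cancer cell lines in 20 µl suspension were incubated on them for 72 h before CellTox Green and then CellTiter-Glo readings. The drug sensitivity score derives from the area under the fitted dose-response curve.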

CAL-120 [2] = assay: as above
How it was run: as §1

BT-549 [3] = assay: as above
How it was run: as §1

CAL-148 [4] = assay: as above
How it was run: as §1

CAL-51 [5] = assay: as above
How it was run: as §1

BT-474 [6] = assay: as above
How it was run: as §1

MFM-223 [7] = assay: as above
How it was run: as §1

MDA-MB-468 [8] = assay: as above
How it was run: as §1

DU-4475 [9] = assay: drug sensitivity score (DSS), CellTiter-Glo (DSS (AUC-based score)); higher = stronger drug effect (viability inhibition or cytotoxicity); extreme values may be limits of the assay
How it was run: as §1

HCC1143 = assay: as above
How it was run: as §1

HDQ-P1 = assay: as above
How it was run: as §1

SK-BR-3 = assay: as above
How it was run: as §1

Hs578T = assay: as above
How it was run: as §1

MDA-MB-231 = assay: as above
How it was run: as §1

CAL-120 [10] = assay: as above
How it was run: as §1

CAL-85-1 = assay: as above
How it was run: as §1

MDA-MB-436 = assay: as above
How it was run: as §1

HCC1937 = assay: as above
How it was run: as §1

HCC1599 = assay: as above
How it was run: as §1

BT-549 [11] = assay: as above
How it was run: as §1

CAL-148 [12] = assay: as above
How it was run: as §1

CAL-51 [13] = assay: as above
How it was run: as §1

MCF-10A = assay: as above
How it was run: as §1

BT-474 [14] = assay: as above
How it was run: as §1

MDA-MB-453 = assay: as above
How it was run: as §1

MFM-223 [15] = assay: as above
How it was run: as §1

MDA-MB-468 [16] = assay: as above
How it was run: as §1

SMILES	drug sensitivity score (DU-4475 [1])	drug sensitivity score (CAL-120 [2])	drug sensitivity score (BT-549 [3])	drug sensitivity score (CAL-148 [4])	drug sensitivity score (CAL-51 [5])	drug sensitivity score (BT-474 [6])	drug sensitivity score (MFM-223 [7])	drug sensitivity score (MDA-MB-468 [8])	drug sensitivity score (DU-4475 [9])	drug sensitivity score (HCC1143)	drug sensitivity score (HDQ-P1)	drug sensitivity score (SK-BR-3)	drug sensitivity score (Hs578T)	drug sensitivity score (MDA-MB-231)	drug sensitivity score (CAL-120 [10])	drug sensitivity score (CAL-85-1)	drug sensitivity score (MDA-MB-436)	drug sensitivity score (HCC1937)	drug sensitivity score (HCC1599)	drug sensitivity score (BT-549 [11])	drug sensitivity score (CAL-148 [12])	drug sensitivity score (CAL-51 [13])	drug sensitivity score (MCF-10A)	drug sensitivity score (BT-474 [14])	drug sensitivity score (MDA-MB-453)	drug sensitivity score (MFM-223 [15])	drug sensitivity score (MDA-MB-468 [16])
Cc1c2oc3c(C)ccc(C(=O)N[C@@H]4C(=O)N[C@H](C(C)C)C(=O)N5CCC[C@H]5C(=O)N(C)CC(=O)N(C)[C@@H](C(C)C)C(=O)O[C@@H]4C)c3nc-2c(C(=O)N[C@@H]2C(=O)N[C@H](C(C)C)C(=O)N3CCC[C@H]3C(=O)N(C)CC(=O)N(C)[C@@H](C(C)C)C(=O)O[C@@H]2C)c(N)c1=O [Dactinomycin]	0	0	6.35	21.3	22.9	2.02	4.62	10.7	30.3	22.4	24.4	21.3	22.5	22.4	17.8	22.8	21	21.7	16.4	31.3	25.7	26.4	23.6	21	18.7	15	32.2
COc1cccc2c1C(=O)c1c(O)c3c(c(O)c1C2=O)C[C@@](O)(C(=O)CO)C[C@@H]3O[C@H]1C[C@H](N)[C@H](O)[C@H](C)O1 [Doxorubicin]	0	0	0	1.99	10.9	0	1.83	5.83	8.65	1.04	2.13	6.19	2.18	4.21	1.5	2.97	4.44	0	1.68	8.09	8.35	12.4	1.13	7.08	2.56	0	9.32
Cc1ccc(F)c(NC(=O)Nc2ccc(-c3cccc4[nH]nc(N)c34)cc2)c1 [Linifanib]	0	0	0	0	0	0	0	0	0	0	0	0	0	0	0	0	0	0	0	0	0	1.94	0	0	0	0	0
